Where a name gives a salt, the structure may show the parent alone.
Target: interaction between p53 and MDM2 proteins (recombinant GST-tagged MDM2) (Homo sapiens, UniProt Q00987)
Test: HTRF assay of inhibition of the p53-MDM2 interaction (GST-MDM2 / biotinylated p53 peptide);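 also: FRET read-out from Eu-labelled anti-GST antibody to streptavidin-APC, with 90 nM N-terminally biotinylated p53 peptide and 160 ng/ml GST-MDM2 in Tris-borate saline containing 1 mM DTT, 384-well format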
Format: binding
Settings: HTRF, 0.02% BSA, 37° C. 1 h
Method: The ability of the compounds to inhibit the interaction between p53 and MDM2 proteins was measured by an HTRF (homogeneous time-resolved fluorescence) assay in which recombinant GST-tagged MDM2 binds to a peptide that resembles the MDM2-interacting region of p53 (Lane et al.). Binding of GST-MDM2 protein and p53-peptide (biotinylated on its N-terminal end) is registered by the FRET (fluorescence resonance energy transfer) between Europium (Eu)-labeled anti-GST antibody and streptavidin-conjugated Allophycocyanin (APC).
Test is performed in black flat-bottom 384-well plates (Costar) in a total volume of 40 uL containing: 90 nM biotinylate peptide, 160 ng/ml GST-MDM2, 20 nM streptavidin-APC (PerkinElmerWallac), 2 nM Eu-labeled anti-GST-antibody (PerkinElmerWallac), 0.02% bovine serum albumin (BSA), 1 mM dithiothreitol (DTT) and 20 mM Tris-borate saline (TBS) buffer as follows: Add 10 uL of GST-MDM2 (640 ng/ml working solution) in reaction buffer to each well. […] Incubate at 37° C. for 1 h.

Sequence of interaction between p53 and MDM2 proteins (recombinant GST-tagged MDM2) (Q00987 whole entry): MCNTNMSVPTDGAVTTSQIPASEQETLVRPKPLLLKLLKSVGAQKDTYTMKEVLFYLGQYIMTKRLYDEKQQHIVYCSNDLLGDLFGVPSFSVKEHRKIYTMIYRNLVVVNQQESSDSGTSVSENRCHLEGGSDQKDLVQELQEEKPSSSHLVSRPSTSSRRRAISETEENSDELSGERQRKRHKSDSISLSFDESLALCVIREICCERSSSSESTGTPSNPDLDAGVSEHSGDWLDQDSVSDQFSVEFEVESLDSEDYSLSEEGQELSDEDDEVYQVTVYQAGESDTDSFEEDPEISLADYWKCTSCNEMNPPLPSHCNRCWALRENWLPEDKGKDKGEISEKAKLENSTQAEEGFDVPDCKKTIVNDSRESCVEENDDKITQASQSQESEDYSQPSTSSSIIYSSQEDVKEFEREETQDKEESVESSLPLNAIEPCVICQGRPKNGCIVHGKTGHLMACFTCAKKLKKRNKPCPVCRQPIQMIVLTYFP

Compound	IC50 [nM]
COCCOCCOCCOC(=O)c1ccc(NC(=O)[C@@H]2N[C@@H](CC(C)(C)C)[C@](C#N)(c3ccc(Cl)cc3F)[C@H]2c2cccc(Cl)c2F)c(OC)c1 [Example 48, 4-{[(2R,3S,4R,5S)-4-(4-Chloro-2-fluoro-phenyl)-3-(3-chloro-2-fluoro-phenyl)-4-cyano-5-(2,2-dimethyl-propyl)-pyrrolidine-2-carbonyl]-amino}-3-methoxy-benzoic acid 2-[2-(2-methoxy-ethoxy)-ethoxy]-ethyl ester, hydrochloride]	13.5
COCCOCCOCCOCCOC(=O)c1ccc(NC(=O)[C@@H]2N[C@@H](CC(C)(C)C)[C@](C#N)(c3ccc(Cl)cc3F)[C@H]2c2cccc(Cl)c2F)c(OC)c1 [Example 49, 4-{[(2R,3S,4R,5S)-4-(4-Chloro-2-fluoro-phenyl)-3-(3-chloro-2-fluoro-phenyl)-4-cyano-5-(2,2-dimethyl-propyl)-pyrrolidine-2-carbonyl]-amino}-3-methoxy-benzoic acid 2-{2-[2-(2-methoxy-ethoxy)-ethoxy]-ethoxy}-ethyl ester, hydrochloride]	13.9
COC(=O)CC[C@@H](NC(=O)c1ccc(NC(=O)[C@@H]2N[C@@H](CC(C)(C)C)[C@](C#N)(c3ccc(Cl)cc3F)[C@H]2c2cccc(Cl)c2F)c(OC)c1)C(=O)OC [Example 53, (R)-2-(4-{[(2R,3S,4R,5S)-4-(4-Chloro-2-fluoro-phenyl)-3-(3-chloro-2-fluoro-phenyl)-4-cyano-5-(2,2-dimethyl-propyl)-pyrrolidine-2-carbonyl]-amino}-3-methoxy-benzoylamino)-pentanedioic acid dimethyl ester, hydrochloride]	12.7
COc1cc(C(=O)OCCOCCOCCOCCO)ccc1NC(=O)[C@@H]1N[C@@H](CC(C)(C)C)[C@](C#N)(c2ccc(Cl)cc2F)[C@H]1c1cccc(Cl)c1F [Example 57, 4-{[(2R,3S,4R,5S)-4-(4-Chloro-2-fluoro-phenyl)-3-(3-chloro-2-fluoro-phenyl)-4-cyano-5-(2,2-dimethyl-propyl)-pyrrolidine-2-carbonyl]-amino}-3-methoxy-benzoic acid 2-{2-[2-(2-hydroxy-ethoxy)-ethoxy]-ethoxy}-ethyl ester, hydrochloride]	17.2
COc1cc(C(=O)OCCN2CCN(CCOC(=O)c3ccc(NC(=O)[C@@H]4N[C@@H](CC(C)(C)C)[C@](C#N)(c5ccc(Cl)cc5F)[C@H]4c4cccc(Cl)c4F)c(OC)c3)CC2)ccc1NC(=O)[C@@H]1N[C@@H](CC(C)(C)C)[C@](C#N)(c2ccc(Cl)cc2F)[C@H]1c1cccc(Cl)c1F [Example 60, 4-{[(2R,3S,4R,5S)-4-(4-Chloro-2-fluoro-phenyl)-3-(3-chloro-2-fluoro-phenyl)-4-cyano-5-(2,2-dimethyl-propyl)-pyrrolidine-2-carbonyl]-amino}-3-methoxy-benzoic acid, 2-[4-(2-hydroxy-ethyl)-piperazin-1-yl]-ethyl ester, dimer]	211
COc1cc(C(=O)OCCN2CCN(CCO)CC2)ccc1NC(=O)[C@@H]1N[C@@H](CC(C)(C)C)[C@](C#N)(c2ccc(Cl)cc2F)[C@H]1c1cccc(Cl)c1F [Example 61, 4-{[(2R,3S,4R,5S)-4-(4-Chloro-2-fluoro-phenyl)-3-(3-chloro-2-fluoro-phenyl)-4-cyano-5-(2,2-dimethyl-propyl)-pyrrolidine-2-carbonyl]-amino}-3-methoxy-benzoic acid 2-[4-(2-hydroxy-ethyl)-piperazin-1-yl]-ethyl ester]	11.4

These reach a lower IC50. Values come first.

IC50 [nM]	Compound
10	COCCOCCOCCOCCOCCOC(=O)c1ccc(NC(=O)[C@@H]2N[C@@H](CC(C)(C)C)[C@](C#N)(c3ccc(Cl)cc3F)[C@H]2c2cccc(Cl)c2F)c(OC)c1 [Example 51, 4-{[(2R,3S,4R,5S)-4-(4-Chloro-2-fluoro-phenyl)-3-(3-chloro-2-fluoro-phenyl)-4-cyano-5-(2,2-dimethyl-propyl)-pyrrolidine-2-carbonyl]-amino}-3-methoxy-benzoic acid 2-(2-{2-[2-(2-methoxy-ethoxy)-ethoxy]-ethoxy}-ethoxy)-ethyl ester, hydrochloride]
9.95	COc1cc(C(=O)OCCOCCOCCOCCOCCOCCO)ccc1NC(=O)[C@@H]1N[C@@H](CC(C)(C)C)[C@](C#N)(c2ccc(Cl)cc2F)[C@H]1c1cccc(Cl)c1F [Example 52, 4-{[(2R,3S,4R,5S)-4-(4-Chloro-2-fluoro-phenyl)-3-(3-chloro-2-fluoro-phenyl)-4-cyano-5-(2,2-dimethyl-propyl)-pyrrolidine-2-carbonyl]-amino}-3-methoxy-benzoic acid 2-[2-(2-{2-[2-(2-hydroxy-ethoxy)-ethoxy]-ethoxy}-ethoxy)-ethoxy]-ethyl ester, hydrochloride]
9.88	COc1cc(C(=O)N[C@@H]2[C@@H](O)[C@H](O)[C@@H](CO)O[C@@H]2O)ccc1NC(=O)[C@@H]1N[C@@H](CC(C)(C)C)[C@](C#N)(c2ccc(Cl)cc2F)[C@H]1c1cccc(Cl)c1F [Example 56, (2R,3S,4R,5S)-4-(4-Chloro-2-fluoro-phenyl)-3-(3-chloro-2-fluoro-phenyl)-4-cyano-5-(2,2-dimethyl-propyl)-pyrrolidine-2-carboxylic acid [2-methoxy-4-((2S,3R,4R,5S,6R)-2,4,5-trihydroxy-6-hydroxymethyl-tetrahydro-pyran-3-ylcarbamoyl)-phenyl]-amide, hydrochloride]
9.13	COc1cc(C(=O)OCCOCCOCCOCCOCCO)ccc1NC(=O)[C@@H]1N[C@@H](CC(C)(C)C)[C@](C#N)(c2ccc(Cl)cc2F)[C@H]1c1cccc(Cl)c1F [Example 50, 4-{[(2R,3S,4R,5S)-4-(4-Chloro-2-fluoro-phenyl)-3-(3-chloro-2-fluoro-phenyl)-4-cyano-5-(2,2-dimethyl-propyl)-pyrrolidine-2-carbonyl]-amino}-3-methoxy-benzoic acid 2-(2-{2-[2-(2-hydroxy-ethoxy)-ethoxy]-ethoxy}-ethoxy)-ethyl ester, hydrochloride]
9.1	COc1cc(C(=O)N(C)C[C@H](O)[C@@H](O)[C@H](O)[C@H](O)CO)ccc1NC(=O)[C@@H]1N[C@@H](CC(C)(C)C)[C@](C#N)(c2ccc(Cl)cc2F)[C@H]1c1cccc(Cl)c1F [Example 55, (2R,3S,4R,5S)-4-(4-Chloro-2-fluoro-phenyl)-3-(3-chloro-2-fluoro-phenyl)-4-cyano-5-(2,2-dimethyl-propyl)-pyrrolidine-2-carboxylic acid {2-methoxy-4-[methyl-((2S,3R,4R,5R)-2,3,4,5,6-pentahydroxy-hexyl)-carbamoyl]-phenyl}-amide, hydrochloride]
8.34	COc1cc(C(=O)OCCOCCOCCO)ccc1NC(=O)[C@@H]1N[C@@H](CC(C)(C)C)[C@](C#N)(c2ccc(Cl)cc2F)[C@H]1c1cccc(Cl)c1F [Example 47, 4-{[(2R,3S,4R,5S)-4-(4-Chloro-2-fluoro-phenyl)-3-(3-chloro-2-fluoro-phenyl)-4-cyano-5-(2,2-dimethyl-propyl)-pyrrolidine-2-carbonyl]-amino}-3-methoxy-benzoic acid 2-[2-(2-hydroxy-ethoxy)-ethoxy]-ethyl ester, hydrochloride]
4.55	COc1cc(C(=O)N[C@H](CCC(=O)O)C(=O)O)ccc1NC(=O)[C@@H]1N[C@@H](CC(C)(C)C)[C@](C#N)(c2ccc(Cl)cc2F)[C@H]1c1cccc(Cl)c1F [Example 54, (R)-2-(4-{[(2R,3S,4R,5S)-4-(4-Chloro-2-fluoro-phenyl)-3-(3-chloro-2-fluoro-phenyl)-4-cyano-5-(2,2-dimethyl-propyl)-pyrrolidine-2-carbonyl]-amino}-3-methoxy-benzoylamino)-pentanedioic acid, hydrochloride]
